Measurements as given in patent US7407969B2, “Respiratory syncytial virus replication inhibitors” (Janssen Pharmaceutica, N.V., priority 1999, dated 2008).
Where two headings read alike, the source gives them in different places.

Assays:
[1] = Cytotoxicity (CC50) in mock-infected HeLa cells, tetrazolium (MTT) colorimetric assay; type: cell-based; conditions: human
Method: (§1) The percent protection against cytopathology caused by viruses (antiviral activity or IC50) achieved by tested compounds and their cytotoxicity (CC50) were both calculated from dose-response curves.
Automated tetrazolium-based […] assays were used for determination of IC50 and CC50 of test compounds. Flat-bottom, 96-well plastic microtiter trays were filled with 180 μl of Eagle's Basal Medium, supplemented with 5% FCS (0% for FLU) and 20 mM Herpes buffer. Subsequently, stock solutions (7.8×final test concentration) of compounds were added in 45 μl volumes to a series of triplicate wells so as to allow simultaneous evaluation of their effects on virus- and mock-infected cells. Five five-fold dilutions were made directly in the microtiter trays using a robot system. Untreated virus controls, and HeLa cell controls were included in each test. Approximately 100 TCID50 Respiratory Syncytial Virus was added to two of the three rows in a volume of 50 μl. The same volume of medium was added to the third row to measure the cytotoxicity of the compounds at the same concentrations as those used to measure the antiviral activity. After two hours of incubation, a suspension (4×10^5 cells/ml) of HeLa cells was added to all wells in a volume of 50 μl. The cultures were incubated at 37° C. in a 5% CO2 atmosphere. Seven days after infection the cytotoxicity and the antiviral activity was examined spectrophotometrically. To each well of the microtiter tray, 25 μl of a solution of MIT (3-(4,5-dimethylthiazol-2-yl)-2,5-diphenyltetrazolium bromide) was added. The trays were further incubated at 37° C. for 2 hours, after which the medium was removed from each cup. Solubilization of the formazan crystals was achieved by adding 100 μl 2-propanol. […] Finally, the absorbances were read in an eight-channel computer-controlled photometer (Multiskan MCC, Flow Laboratories) at two wavelengths (540 and 690 nm). The absorbance measured at 690 nm was automatically subtracted from the absorbance at 540 nm, so as to eliminate the effects of non-specific absorption.

[2] = test system: Respiratory Syncytial Virus; assay: microbe, parasite or virus in culture; type: cell-based; conditions: for SI: selectivity index = CC50 divided by IC50
Method: as §1
Automated tetrazolium-based […] assays were used for determination of IC50 and CC50 of test compounds. Flat-bottom, 96-well plastic microtiter trays were filled with 180 μl of Eagle's Basal Medium, supplemented with 5% FCS (0% for FLU) and 20 mM Herpes buffer. Subsequently, stock solutions (7.8×final test concentration) of compounds were added in 45 μl volumes to a series of triplicate wells so as to allow simultaneous evaluation of their effects on virus- and mock-infected cells. Five five-fold dilutions were made directly in the microtiter trays using a robot system. Untreated virus controls, and HeLa cell controls were included in each test. Approximately 100 TCID50 Respiratory Syncytial Virus was added to two of the three rows in a volume of 50 μl. The same volume of medium was added to the third row to measure the cytotoxicity of the compounds at the same concentrations as those used to measure the antiviral activity. After two hours of incubation, a suspension (4×10^5 cells/ml) of HeLa cells was added to all wells in a volume of 50 μl. The cultures were incubated at 37° C. in a 5% CO2 atmosphere. Seven days after infection the cytotoxicity and the antiviral activity was examined spectrophotometrically. To each well of the microtiter tray, 25 μl of a solution of MIT (3-(4,5-dimethylthiazol-2-yl)-2,5-diphenyltetrazolium bromide) was added. The trays were further incubated at 37° C. for 2 hours, after which the medium was removed from each cup. Solubilization of the formazan crystals was achieved by adding 100 μl 2-propanol. Complete dissolution of the formazan crystals were obtained after the trays have been placed on a plate shaker for 10 min. Finally, the absorbances were read in an eight-channel computer-controlled photometer (Multiskan MCC, Flow Laboratories) at two wavelengths (540 and 690 nm). The absorbance measured at 690 nm was automatically subtracted from the absorbance at 540 nm, so as to eliminate the effects of non-specific absorption.

[3] = human respiratory syncytial virus, HeLa, 168 h

melting point [°C] | Molecule | SI [2] | other results
135 | CC(C)C(N)CN1CCC(Nc2nc3ccccc3n2Cc2ccc3ccccc3n2)CC1 (racemic) [Compound 6, (±)-N-[1-(2-amino-3-methylbutyl)-4-piperidinyl]-1-(2-quinolinylmethyl)-1H-benzimidazol-2-amine] | 794 | CC50 at 7 days [1]: 10000 nM; IC50 ([2]; human respiratory syncytial virus, 168 h, antiviral activity against Respiratory Syncytial Virus, HeLa cells, 7 days after infection, MTT, read-out: IC50): 12.6 nM
230 | CC(C)C(N)CN1CCC(Nc2nc3ccccc3n2CC2CCc3ccccc3N2)CC1.Cl.Cl.Cl.Cl.O (racemic) (hydrate or solvate) |  | 
 | (±)-N-[1-(2-amino-3-methylbutyl)-4-piperidinyl]-3-(quinolinylmethyl)-3H-imidazo[4,5-b]pyridin-2-amine [Compound 42] | >25119 | IC50 ([2]; antiviral activity against Respiratory Syncytial Virus, HeLa cells, 7 days after infection, MTT, read-out: IC50): 0.4 nM
196 | NCCN1CCC(Nc2nc3ccccc3n2Cc2ccnc3ccccc23)CC1 |  | 
202 | CCOC(c1cccc2cccnc12)n1c(NC2CCN(C(CN)C(C)C)CC2)nc2ccccc21 (racemic) |  | 
 | CCOCCOC(c1cccc2cccnc12)n1c(NC2CCN(CC(N)C(C)C)CC2)nc2ccccc21 (racemic) [Compound 31, (±)-N-[1-(2-amino-3-methylbutyl)-4-piperidinyl]-1-[(2-ethoxyethoxy)-8-quinolinyl-methyl]-1H-benzimidazol-2-amine] | 15849 | CC50 at 7 days [1]: 12700 nM; IC50 [2, 3]: 0.8 nM
 | CC(C)C(N)CN1CCC(Nc2nc3ccccc3n2C2CCCc3ccc(Br)nc32)CC1.Cl.Cl.Cl.O.O.O (racemic) [Compound 56, (±)-N-[1-(2-amino-3-methylbutyl)-4-piperidinyl]-1-(2-bromo-5,6,7,8-tetrahydro-8-quinolinyl)-1H-benzimidazol-2-amine trihydrochloride trihydrate] | 7943 | CC50 at 7 days ([1]; cytotoxicity in mock-infected HeLa cells, 7 days, MTT, read-out: CC50): 12700 nM; IC50 [2, 3]: 1.6 nM
